From patent US20160052936A1, “SPIROINDOLINE DERIVATIVES FOR USE AS GONADOTROPIN-RELEASING HORMONE RECEPTOR ANTAGONISTS” (BAYER PHARMA AKTIENGESELLSCHAFT, priority 2013, published 2016) come the findings set out here.

One data set deals with T1, human GnRH receptor (Homo sapiens, UniProt P30968).
T1 construct: host or cells: CHO cells stably expressing human GnRH receptor (line established by Prof. Thomas Gudermann)
T1 sequence (P30968 1-328): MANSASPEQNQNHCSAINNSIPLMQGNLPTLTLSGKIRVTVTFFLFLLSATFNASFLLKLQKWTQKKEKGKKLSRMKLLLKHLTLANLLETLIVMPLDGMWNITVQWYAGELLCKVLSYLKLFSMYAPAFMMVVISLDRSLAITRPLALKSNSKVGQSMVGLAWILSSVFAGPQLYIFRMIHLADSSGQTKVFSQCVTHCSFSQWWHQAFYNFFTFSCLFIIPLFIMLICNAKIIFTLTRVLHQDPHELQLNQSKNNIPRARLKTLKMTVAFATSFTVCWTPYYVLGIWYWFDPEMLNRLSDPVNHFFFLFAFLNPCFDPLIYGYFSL
Kind of data set: IP-One HTRF assay with buserelin stimulation. Conditions: CHO cells stably expressing human GnRH receptor; buserelin at EC80; read-out: Potency in IP-One HTRF assay with buserelin (at EC80) stimulation, given as IC50. It counts as cell-based. The method, boiled down: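 CHO cells stably expressing human GnRH receptor, preincubated 1 h with IP1-d2 at 37 °C, treated with compound and EC80 buserelin (LiCl present) for 1 h at 37 °C; IP1 measured by HTRF (665/620 nm ratio) after lysis 1 h at 22 °C. Ten concentrations, 20 μM–1 nM, duplicate; IC50 by 4-parameter fit.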

A short description of data set [1]: In vivo pharmacokinetics in rats. Conditions: Wistar, rat, plasma, po, male rats, 2 mg/kg p.o.; for bioavailability: AUCnorm intragastral / AUCnorm i.v. (0.5 mg/kg), read-out: F (oral bioavailability). The protocol:
2.4 In Vivo Pharmacokinetics in Rats
For in vivo pharmacokinetic experiments test compounds were administered to male Wistar rats intravenously at a dose of 0.5 mg/kg and intragastral at a dose of 2 mg/kg formulated as solutions using solubilizers such as PEG400 or Solutol in well-tolerated amounts.
For pharmacokinetics after intravenous administration test compounds were given as i.v. bolus and blood samples were taken at 2 min, 8 min, 15 min, 30 min, 45 min, 1 h, 2 h, 4 h, 7 h and 24 h after dosing. […] For pharmacokinetics after intragastral administration test compounds were given intragastral to fasted rats and blood samples were taken at 8 min, 15 min, 30 min, 45 min, 1 h, 2 h, 4 h, 7 h and 24 h after dosing. […] Blood was collected into Lithium-Heparintubes (Monovetten®, Sarstedt) and centrifuged for 15 min at 3000 rpm. An aliquot of 100 μL from the supernatant (plasma) was taken and precipitated by addition of 400 μL cold acetonitril and frozen at −20° C. over night. Samples were subsequently thawed and centrifuged at 3000 rpm, 4° C. for 20 minutes. Aliquots of the supernatants were taken for analytical testing using an Agilent 1200 HPLC-system with LCMS/MS detection. PK parameters were calculated by non-compartmental analysis using a PK calculation software.
PK parameters derived from concentration-time profiles after i.v.: CLplasma: Total plasma clearance of test compound (in L/kg/h); CLblood: Total blood clearance of test compound: CLplasma*Cp/Cb (in L/kg/h) with Cp/Cb being the ratio of concentrations in plasma and blood. PK parameters calculated from concentration time profiles after i.g.: Cmax: Maximal plasma concentration (in mg/L); Cmaxnorm: Cmax divided by the administered dose (in kg/L); Tmax: Time point at which Cmax was observed (in h). Parameters calculated from both, i.v. and i.g. concentration-time profiles: AUCnorm: Area under the concentration-time curve from t=0 h to infinity (extrapolated) divided by the administered dose (in kg*h/L); AUC(0−tlast)norm: Area under the concentration-time curve from t=0 h to the last time point for which plasma concentrations could be measured divided by the administered dose (in kg*h/L); t½: terminal half-life (in h); F: oral bioavailability: AUCnorm after intragastral administration divided by AUCnorm after intravenous administration (in %).

Usually IC50 stands for the concentration needed to halve the response being measured. In general, half-life refers to the time needed for the level to fall by half in the phase considered. Low readings indicate rapid decline, high ones slow decline. In general, bioavailability refers to the share of a dose that reaches the circulation, judged against a reference dose that is usually intravenous.

Structures are written as SMILES.

For `O=C(NCc1ncc(C(F)(F)F)cc1F)c1ccc2c(c1)C1(CCS(=O)(=O)CC1)[C@H](C1CC1)N2S(=O)(=O)c1ccc(F)cc1` (single isomer, unassigned) [Example 1.1], the IC50 at human GnRH receptor was 93 nM. In data set [1], the half-life was 5.2 h and the bioavailability was 32%.

For `N#Cc1cccc(S(=O)(=O)N2c3ccc(C(=O)NCc4ncc(C(F)(F)F)cc4Cl)cc3C3(CCS(=O)(=O)CC3)[C@@H]2C2CC2)c1` (single isomer, unassigned) [Example 10.1], at human GnRH receptor, the IC50 was 14 nM. In data set [1], the half-life is 3.3 h and the bioavailability was determined as 23%.

Regarding `O=C(NCc1ncc(C(F)(F)F)cc1Cl)c1ccc2c(c1)C1(CCS(=O)(=O)CC1)[C@H](C1CC1)N2S(=O)(=O)c1ccc(F)cc1` [Example 3.1, (2S)—N-{[3-chloro-5-(trifluoromethyl)pyridin-2-yl]methyl}-2-cyclopropyl-1-[(4-fluorophenyl)sulfonyl]-1,2,2′,3′,5′,6′-hexahydrospiro[indole-3,4′-thiopyran]-5-carboxamide 1′,1′-dioxide], the 50% inhibitory concentration (IC50) on human GnRH receptor was 21 nM. In data set [1], the half-life was 17 h and the bioavailability came out at 87%.
